The values that follow come from patent US7964565B2, “Method of inhibiting inflammation in a mammal by administering Bcl protein” (University of Washington Center for Commercialization, a …, priority 2004, dated 2011).

The test system of experiment [1] is C57BL/6 mice, hind-limb skeletal muscle ischemia-reperfusion injury. Briefly: Hind-limb tourniquet ischemia-reperfusion, plasma creatine kinase. The format is in vivo, mouse. As to conditions: tourniquet 90 min, reperfusion 3 hours. As to the method: Skeletal muscle was made ischemic by applying a tourniquet to the hind-limbs of C57BL/6 mice for 90 minutes, then removing the tourniquet and allowing reperfusion for an additional 3 hours. Mice were treated with active peptide 1 (SEQ ID NO:17) or peptide 2 (SEQ ID NO:18) or peptide 3 (SEQ ID NO:19), or with the scrambled (control) peptide (SEQ ID NO:20). Peptide-1 (SEQ ID NO:17) is from the BH4 region of Bcl-2. Peptide-2 (SEQ ID NO:18) is from the first alpha helix of A1. Peptide-3 (SEQ ID NO:19) is from the BH4 region of Bcl-XL. The amino acid sequences of peptide 1 (SEQ ID NO:17), peptide 2 (SEQ ID NO:18), peptide 3 (SEQ ID NO:19), and the scrambled (control) peptide (SEQ ID NO:20) are set forth in Table 1.
At the end of the 3 hours of reperfusion the mice were killed, and blood was taken for determination of plasma creatine kinase (CK) concentration. The CK concentration was used as an indicator of muscle injury. Elevated levels of CK indicate higher levels of muscle injury. […] The CK concentration for peptide 1 (SEQ ID NO:17) treated mice was 19,020+/−5481 IU/L (n=12) compared with control peptide (SEQ ID NO:20) where CK concentration was 60,530+/−5759 IU/L (n=12). The CK concentration for peptide 2 (SEQ ID NO:18) treated mice was 33,860+/−5997 IU/L (n=11) compared with control peptide (SEQ ID NO:20) where CK concentration was 69,430+/−11,170 IU/L (n=12). The CK concentration for peptide 3 (SEQ ID NO:19) treated mice was 49,500+/−3,901 IU/L (n=5) compared with control peptide (SEQ ID NO:20) where CK concentration was 80,880+/−11,430 IU/L (n=6).

Experiment [2] deals with C57BL/6 mice, hind limb skeletal muscle ischemia-reperfusion injury. Briefly: Hind limb ischemia-reperfusion by aortic cross-clamp, plasma creatine kinase. It counts as in vivo. As to conditions: protein injected i.p. the day before 90 min hind limb ischemia and 180 min reperfusion; 12 mice per group; rBcl-2 1 μg per mouse vs combined rUbiquitin/vehicle; rA1 vs rUbiquitin. As to the method:
Mouse skeletal muscle was made ischemic by cross-clamping the aorta distal to the renal artery for 90 minutes, then the clamp was removed and hind limb reperfusion continued for 3 hours. At the end of reperfusion (3 hours after clamp removal) the mice were killed, and the concentration of plasma creatine kinase (CK) was measured and used as an indicator of injury (creatine kinase concentration increases as a result of skeletal muscle injury).
Blood from EμT-Bcl-2 mice and their littermate control mice was drawn into heparin and plasma was extracted by centrifugation. One ml of plasma from EμT-Bcl-2 mice, or one ml of plasma from littermate control mice, was injected into the peritoneum of C57BL/6 mice the day before the mice were subjected to 90 minutes of ischemia and 3 hours of reperfusion as described in Example 1 herein. Blood was drawn from the mice and plasma CK concentration was determined at the end of reperfusion.
Control Jaws II cells expressed only EGFP. […]
Medium from cell cultures of hBcl-2-Jaws II cells and EGFP-Jaws II cells was harvested 24 hours after the start of incubation and concentrated approximately 10-fold using centrifugal filters with a molecular size cut-off of approximately 3 kD. […] Plasma was extracted from the mice after ischemia-reperfusion, and plasma CK concentration was determined. […]

The mark [3] stands for this setting: experiment with peptide 2, n=11 peptide, n=12 control.

With “peptide 2: from the first alpha helix of A1; FGYIYRLAQDYLQCVLQIPZPGSGP (SEQ ID NO:18)”, in experiment [1] (setting [3]), the “plasma CK concentration” value is reported as 33,860+/−5997 IU/L.
On to “control peptide: scrambled (control) peptide; TWHMYGNQRDYIGDRSKIVYKLEYE (SEQ ID NO:20)”, for which the “plasma CK concentration” value in experiment [1] (experiment with peptide 1, n=12 per group) is on record as 60,530+/−5759 IU/L; in experiment [1] (setting [3]), 69,430+/−11,170 IU/L; in experiment [1] (experiment with peptide 3, n=5 peptide, n=6 control), 80,880+/−11,430 IU/L.

B1: rA1: human A1 minus 25 amino acids at the carboxy terminal and addition of 6 histidine on the remaining protein (protein, listed as Homo sapiens)
chain: MTDCEFGYIYRLAQDYLQCVLQIPQPGSGPSKTSRVLQNVAFSVQKEVEKNLKSCLDNVNVVSVDTARTLFNQVMEKEFEDGIINWGRIVTIFAFEGILIKKLLRQQIAPDVDTYKEISYFVAEFIMNNTGEWIRQNGGWENGFVKKFEPKSHHHHHH
With B1, the “plasma creatine kinase levels vs control” value in experiment [2] is given as “significantly (p<0.05) lower”.
